US11370776B2, “Sulfonylureas and sulfonylthioureas as NLRP3 inhibitors” (Inflazome Limited, priority 2017, dated 2022)
Where a name gives a salt, the structure may show the parent alone.

These compounds were tested against NLRP3 (Homo sapiens, UniProt Q96P20) (assay: THP-1 cells pyroptosis assay). Details: THP-1 cells, 1.0 μg/ml LPS, nigericin 5 μM, pyroptosis read with resazurin; read-out: THP IC50.
NLRP3, sequence (Q96P20 whole entry): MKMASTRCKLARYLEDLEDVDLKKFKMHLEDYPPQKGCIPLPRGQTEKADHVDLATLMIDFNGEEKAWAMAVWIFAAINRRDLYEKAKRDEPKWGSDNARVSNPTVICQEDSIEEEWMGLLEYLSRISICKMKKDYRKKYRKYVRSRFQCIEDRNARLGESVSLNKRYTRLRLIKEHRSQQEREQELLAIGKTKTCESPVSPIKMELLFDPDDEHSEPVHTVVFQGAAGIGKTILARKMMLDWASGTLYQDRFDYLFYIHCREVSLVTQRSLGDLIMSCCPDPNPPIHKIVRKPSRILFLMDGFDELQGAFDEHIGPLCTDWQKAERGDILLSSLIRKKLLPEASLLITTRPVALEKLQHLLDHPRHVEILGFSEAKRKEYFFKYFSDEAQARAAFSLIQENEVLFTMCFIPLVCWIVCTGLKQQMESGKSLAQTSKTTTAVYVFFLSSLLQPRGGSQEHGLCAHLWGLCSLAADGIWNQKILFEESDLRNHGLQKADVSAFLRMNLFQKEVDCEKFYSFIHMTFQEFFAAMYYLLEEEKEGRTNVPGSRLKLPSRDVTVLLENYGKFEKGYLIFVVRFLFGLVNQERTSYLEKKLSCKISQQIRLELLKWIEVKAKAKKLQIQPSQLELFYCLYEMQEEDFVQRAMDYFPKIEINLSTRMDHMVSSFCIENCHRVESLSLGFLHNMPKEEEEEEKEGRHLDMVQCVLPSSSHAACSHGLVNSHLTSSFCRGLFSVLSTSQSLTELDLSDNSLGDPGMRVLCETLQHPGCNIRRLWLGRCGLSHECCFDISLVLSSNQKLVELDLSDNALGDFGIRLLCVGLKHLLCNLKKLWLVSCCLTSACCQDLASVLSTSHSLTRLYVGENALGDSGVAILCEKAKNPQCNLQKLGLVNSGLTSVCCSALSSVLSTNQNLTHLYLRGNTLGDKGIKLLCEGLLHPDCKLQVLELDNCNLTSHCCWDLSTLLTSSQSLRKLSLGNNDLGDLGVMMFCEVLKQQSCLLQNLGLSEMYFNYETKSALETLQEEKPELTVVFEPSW
Format: cell-based
Design: Seed THP-1 cells (25,000 cells/well) containing 1.0 μg/ml LPS; host or cells: THP-1 cells, LPS-primed, nigericin-stimulated
Procedure: The cells were routinely passaged and grown to confluency (˜10^6 cells/ml). On the day of the experiment, THP-1 cells were harvested and resuspended into RPMI medium (without FBS). The cells were then counted and viability (>90%) checked by Trypan blue (Sigma # T8154). […] To this diluted cell solution was added LPS (Sigma # L4524) to give a 1 μg/ml Final Assay Concentration (FAC). 40 μl of the final preparation was aliquoted into each well of a 96-well plate. The plate thus prepared was used for compound screening. THP-1 Cells Pyroptosis Assay The following method step-by-step assay was followed for compound screening. • 1. […] Add 5 μl nigericin (Sigma # N7143) (FAC 5 μM) to all wells • 5. […] At the end of the incubation period, spin plates at 300×g for 3 mins and remove supernatant • 7. Then add 50 μl of resazurin (Sigma # R7017) (FAC 100 μM resazurin in RPMI medium without FBS) and incubate plates for a further 1-2 hrs at 37° C. and 5% CO2 • 8. […] IC50 data is fitted to a non-linear regression equation (log inhibitor vs response-variable slope 4-parameters) [table]
In the case of `O=C(Nc1c2c(cc3c1CCC3)CCC2)NS(=O)(=O)c1cccnn1` [Example 2, N-((1,2,3,5,6,7-Hexahydro-s-indacen-4-yl)carbamoyl)pyridazine-3-sulfonamide, Potassium Salt], the IC50 is reported as under 2000 nM. `O=C(Nc1c2c(cc3c1CCC3)CCC2)NS(=O)(=O)c1ncccn1` [Example 3, N-((1,2,3,5,6,7-Hexahydro-s-indacen-4-yl)carbamoyl) pyrimidine-2-sulfonamide, Potassium Salt] was tested, and the IC50 was under 1600 nM. For `Cc1ccc(S(=O)(=O)NC(=O)Nc2c3c(cc4c2CCC4)CCC3)nn1` [Example 4, N-((1,2,3,5,6,7-Hexahydro-s-indacen-4-yl)carbamoyl)-6-methylpyridazine-3-sulfonamide, Sodium Salt], the IC50 was under 10000 nM. Work on `Cc1ccc(S(=O)(=O)NC(=O)Nc2c(C(C)C)cccc2C(C)C)nn1` [Example 5, N-((2,6-Diisopropylphenyl)carbamoyl)-6-methylpyridazine-3-sulfonamide, Potassium Salt] yielded an IC50 of under 10000 nM. `CC(C)c1cccc(C(C)C)c1NC(=O)NS(=O)(=O)c1cnccn1` [Example 6, N-((2,6-Diisopropylphenyl)carbamoyl)pyrazine-2-sulfonamide, Sodium Salt] was tested, and the IC50 was under 10000 nM. `O=C(Nc1c2c(cc3c1CCC3)CCC2)NS(=O)(=O)c1ccc(Cl)nn1` [Example 11, 6-Chloro-N-((1,2,3,5,6,7-hexahydro-s-indacen-4-yl)carbamoyl) pyridazine-3-sulfonamide, Potassium Salt] gave an IC50 of under 10000 nM. `COc1cc(S(=O)(=O)NC(=O)Nc2c3c(cc4c2CCC4)CCC3)c(OC)nn1` [Example 12, N-((1,2,3,5,6,7-Hexahydro-s-indacen-4-yl)carbamoyl)-3,6-di methoxypyridazine-4-sulfonamide, potassium salt] gave an IC50 of under 1200 nM. `CN(C)c1ccc(S(=O)(=O)NC(=O)Nc2c3c(cc4c2CCC4)CCC3)nn1` [Example 13, 6-(Dimethylamino)-N-((1,2,3,5,6,7-hexahydro-s-indacen-4-yl)carbamoyl)pyridazine-3-sulfonamide, potassium salt] gave an IC50 of under 1600 nM. `O=C(Nc1c2c(cc3c1CCC3)CCC2)NS(=O)(=O)c1nccnc1C(F)F` [Example 14, 3-(Difluoromethyl)-N-((1,2,3,5,6,7-hexahydro-s-indacen-4-yl)carbamoyl)pyrazine-2-sulfonamide, potassium salt] was tested, and the IC50 was under 2000 nM. For `COc1ncccc1S(=O)(=O)NC(=O)Nc1c2c(cc3c1CCC3)CCC2` [Example 15, N-((1,2,3,5,6,7-Hexahydro-s-indacen-4-yl)carbamoyl)-2-methoxypyridine-3-sulfonamide, Potassium Salt], the IC50 was under 1200 nM. Compound `O=C(Nc1c2c(cc3c1CCC3)CCC2)NS(=O)(=O)c1cc(C(F)(F)F)cnn1` [Example 16, N-((1,2,3,5,6,7-Hexahydro-s-indacen-4-yl)carbamoyl)-5-(trifluoromethyl)pyridazine-3-sulfonamide, Potassium Salt] has an IC50 of under 10000 nM. `COc1cc(S(=O)(=O)NC(=O)Nc2c3c(cc4c2CCC4)CCC3)ncn1` [Example 19, N-((1,2,3,5,6,7-Hexahydro-s-indacen-4-yl)carbamoyl)-6-methoxypyrimidine-4-sulfonamide, Potassium Salt] showed an IC50 of under 800 nM. For `NC(=O)c1ccc(S(=O)(=O)NC(=O)Nc2c3c(cc4c2CCC4)CCC3)nn1` [Example 20, 6-(N-((1,2,3,5,6,7-Hexahydro-s-indacen-4-yl)carbamoyl)sulfamoyl) pyridazine-3-carboxamide, potassium salt], the IC50 was under 10000 nM. `CN(C)c1cnnc(S(=O)(=O)NC(=O)Nc2c3c(cc4c2CCC4)CCC3)c1` [Example 21, 5-(Dimethylamino)-N-((1,2,3,5,6,7-hexahydro-s-indacen-4-yl)carbamoyl)pyridazine-3-sulfonamide, Potassium Salt] gave an IC50 of under 800 nM. For `COc1ccc(S(=O)(=O)NC(=O)Nc2c3c(cc4c2CCC4)CCC3)nn1` [Example 22, N-((1,2,3,5,6,7-Hexahydro-s-indacen-4-yl)carbamoyl)-6-methoxy pyridazine-3-sulfonamide, Potassium Salt], the IC50 was under 1600 nM. Work on `O=C(Nc1c2c(cc3c1CCC3)CCC2)NS(=O)(=O)c1ccc(=O)[nH]c1` [Example 23, N-((1,2,3,5,6,7-hexahydro-s-indacen-4-yl)carbamoyl)-6-oxo-1,6-dihydropyridine-3-sulfonamide, Potassium Salt] yielded an IC50 of under 10000 nM. With `N#Cc1nccnc1S(=O)(=O)NC(=O)Nc1c2c(cc3c1CCC3)CCC2` [Example 24, 3-Cyano-N-((1,2,3,5,6,7-hexahydro-s-indacen-4-yl)carbamoyl)pyrazine-2-sulfonamide, Potassium Salt] the IC50 was under 10000 nM. For `CN(C)CCNc1cnc(S(=O)(=O)NC(=O)Nc2c3c(cc4c2CCC4)CCC3)cn1` [Example 25, 5-((2-(Dimethylamino)ethyl)amino)-N-((1,2,3,5,6,7-hexahydro-s-indacen-4-yl)carbamoyl)pyrazine-2-sulfonamide, potassium Salt], the IC50 was under 800 nM. `CN(C)c1cnc(S(=O)(=O)NC(=O)Nc2c3c(cc4c2CCC4)CCC3)cn1` [Example 26, 5-(Dimethylamino)-N-((1,2,3,5,6,7-hexahydro-s-indacen-4-yl)carbamoyl)pyrazine-2-sulfonamide, Potassium Salt] was tested, and the IC50 was under 800 nM. Compound `O=C(Nc1c2c(cc3c1CCC3)CCC2)NS(=O)(=O)c1cncc(N2CCOCC2)n1` [Example 28, N-((1,2,3,5,6,7-Hexahydro-s-indacen-4-yl)carbamoyl)-6-morpholinopyrazine-2-sulfonamide, Potassium Salt] has an IC50 of under 800 nM. With `Cc1nccnc1S(=O)(=O)NC(=O)Nc1c2c(cc3c1CCC3)CCC2` [Example 29, N-((1,2,3,5,6,7-Hexahydro-s-indacen-4-yl)carbamoyl)-3-methylpyrazine-2-sulfonamide, Potassium Salt] the IC50 was under 10000 nM. `O=C(Nc1c2c(cc3c1CCC3)CCC2)NS(=O)(=O)c1cnc2ccccc2n1` [Example 30, N-((1,2,3,5,6,7-Hexahydro-s-indacen-4-yl)carbamoyl)quinoxaline-2-sulfonamide, Potassium Salt] showed an IC50 of under 10000 nM. `Cc1nn(C)c2ncc(S(=O)(=O)NC(=O)Nc3c4c(cc5c3CCC5)CCC4)cc12` [Example 31, N-((1,2,3,5,6,7-Hexahydro-s-indacen-4-yl)carbamoyl)-1,3-dimethyl-1H-pyrazolo[3,4-b]pyridine-5-sulfonamide, Potassium Salt] was tested, and the IC50 was under 10000 nM. With `CCOc1ccncc1S(=O)(=O)NC(=O)Nc1c2c(cc3c1CCC3)CCC2` [Example 32, 4-Ethoxy-N-((1,2,3,5,6,7-hexahydro-s-indacen-4-yl)carbamoyl)pyridine-3-sulfonamide, Potassium Salt] the IC50 was under 10000 nM. Work on `CC(C)c1cc(F)cc(-c2ccnc(C#N)c2)c1NC(=O)NS(=O)(=O)c1cncc(N(C)C)n1` [Example 34, N-((2-(2-Cyanopyridin-4-yl)-4-fluoro-6-isopropylphenyl)carbamoyl)-6-(dimethylamino)pyrazine-2-sulfonamide] yielded an IC50 of under 800 nM. Compound `COc1cc(-c2cc(F)cc(C(C)C)c2NC(=O)NS(=O)(=O)c2cncc(N(C)C)n2)ccn1` [Example 35, 6-(Dimethylamino)-N-((4-fluoro-2-isopropyl-6-(2-methoxypyridin-4-yl)phenyl)carbamoyl)pyrazine-2-sulfonamide] has an IC50 of under 800 nM. With `COc1cc(-c2ccc3c(c2NC(=O)NS(=O)(=O)c2cncc(N(C)C)n2)CCC3)ccn1` [Example 36, 6-(Dimethylamino)-N-((5-(2-methoxypyridin-4-yl)-2,3-dihydro-1H-inden-4-yl)carbamoyl)pyrazine-2-sulfonamide] the IC50 was under 800 nM. Work on `COc1cc(-c2cc(F)cc(C(C)C)c2NC(=O)NS(=O)(=O)c2cnc(N(C)C)cn2)ccn1` [Example 39, 5-(Dimethylamino)-N-((4-fluoro-2-isopropyl-6-(2-methoxypyridin-4-yl)phenyl)carbamoyl)pyrazine-2-sulfonamide] yielded an IC50 of under 800 nM. `CN(C)c1cnc(S(=O)(=O)NC(=O)Nc2c(-c3ccncc3)cc(F)c3c2CCC3)cn1` [Example 41, 5-(Dimethylamino)-N-((7-fluoro-5-(pyridin-4-yl)-2,3-dihydro-1H-inden-4-yl)carbamoyl)pyrazine-2-sulfonamide] gave an IC50 of under 800 nM. `COc1cc(-c2cc(F)cc(C(C)C)c2NC(=O)NS(=O)(=O)c2nccnc2C(F)F)ccn1` [Example 43, 3-(Difluoromethyl)-N-((4-fluoro-2-isopropyl-6-(2-methoxypyridin-4-yl)phenyl)carbamoyl)pyrazine-2-sulfonamide] gave an IC50 of under 10000 nM. `COc1cc(-c2ccc3c(c2NC(=O)NS(=O)(=O)c2nccnc2C(F)F)CCC3)ccn1` [Example 44, 3-(Difluoromethyl)-N-((5-(2-methoxypyridin-4-yl)-2,3-dihydro-1H-inden-4-yl)carbamoyl)pyrazine-2-sulfonamide] showed an IC50 of under 1200 nM. With `O=C(Nc1c(-c2ccncc2)cc(F)c2c1CCC2)NS(=O)(=O)c1nccnc1C(F)F` [Example 45, 3-(Difluoromethyl)-N-((7-fluoro-5-(pyridin-4-yl)-2,3-dihydro-1H-inden-4-yl)carbamoyl)pyrazine-2-sulfonamide] the IC50 was under 10000 nM.

Same assay, conditions: THP-1 pyroptosis assay, bound stated; read-out: IC50 value
`O=C(Nc1c2c(cc3c1CCC3)CCC2)NS(=O)(=O)c1ncccn1` [Example 3, N-((1,2,3,5,6,7-Hexahydro-s-indacen-4-yl)carbamoyl) pyrimidine-2-sulfonamide, Potassium Salt] showed an IC50 of over 1200 nM.
